# “Also recorded” adds a separate entry of the source.
# Assays:
# pMek1/2 = assay: Immunohistochemistry of biopsies from Crohn's disease patients for pMek1/2 expression; assay type: in vivo, human; settings: before vs after treatment
# Description: Biopsies obtained from Crohn's disease patients (before and after Semapimod treatment) who participated in the Semapimod-pilot study in the AMC, were analyzed by immunohistochemistry.
# Biopsies obtained from Crohn's disease patients (before and after treatment) who participated in the Semapimod-pilot study performed in our department, were analyzed for pMek1/2 expression (the substrate of Raf) by immunohistochemistry (FIGS. 8-9).
# 4/4 macrophages = assay: Western blot of LPS-stimulated 4/4 macrophages for MAPK signaling molecules; assay type: cell-based, murine; settings: 0.1 and 1 μM, 1 hour pre-incubation, LPS 100 ng/ml 15 minutes
# Description: 4/4 macrophages were used for in vitro experiments and western blot analysis. An in vitro kinase assay was performed to reconfirm findings obtained with western blotting. […] 4/4 macrophages were grown to 70% confluence, pre-incubated for 1 hour with Semapimod (0.1 and 1 μM) and stimulated with LPS (100 ng/ml) for 15 minutes. Cells were harvested in sample buffer and whole cell lysates were loaded onto 10% SDS-PAGE and subsequently transferred to a PVDF membrane. Blots were stained with phospho-specific antibodies for various MAPK signaling molecules. […] Importantly, pRaf protein levels and pPak, upstream of Raf, were not affected due to Semapimod incubation. […] FIG. 6 Western blot: Reduced pP38, pJnk, pErk in 4/4 macrophages treated with Semapimod (1 and 0.1 μM) in LPS present conditions was seen. Moreover, the phosphorylation status of MKK4/7 (upstream of Jnk), and Mek1/2 (upstream of Erk) was affected due to Semapimod treatment. pRaf expression was not influenced by Semapimod. To test for equal loading, western blots were analyzed for actin expression. Similar results were obtained in three independent experiments.
# [1] = CRP serum levels of Crohn's disease patients in the Semapimod pilot study; assay type: in vivo, human
# Description: FIGS. 9A and B show the IHC analysis of Crohn's disease patients who participated in the Semapimod pilot study. […] CRP levels of patient #12 were not affected by Semapimod (e.g. nonresponder). Importantly, pMek1/2 expression was also not affected by Semapimod in this nonresponder. […] This finding correlates with the low CRP levels at baseline (FIG. 9B).
# PBMCs = assay: Western blot of LPS-stimulated PBMCs for phosphorylated proteins; assay type: cell-based, human; settings: 1.0 μM CNI-1493 pre-incubation, LPS 15 minutes
# Description: Peripheral Blood Mononuclear Cells (PBMCs) were isolated from peripheral blood from healthy volunteers using standard density-gradient centrifugation over Ficoll-Paque Plus (Amersham Pharmacia Biotech AB, Uppsala, Sweden) after washing in resuspension in IMDM supplemented with 10% FBS, penicillin, streptomycin and amphotericin (hereafter referred to as complete IMDM).
# For western blot samples, […] PBMCs were suspended in 1 ml media and LPS stimulations were 15 minute incubations (37° C., 5% CO2) with 10 ng/ml LPS or pre-incubated with 1.0 μM CNI-1493 (Cytokine PharmaSciences, Inc.). Stimulations were terminated by an ice-cold PBS wash. Cells were subsequently pelleted, lysed, denatured (5 minutes at 95° C.) and stored at −20° C. 10^6 PBMCs lysed in 200 μl SDS Sample Buffer (62.5 mM Tris-HCl (pH 6.8 at 25° C.), 2% w/v SDS, 10% glycerol, 50 mM DTT, 0.01% w/v bromophenol blue), 25 μl of which was separated on 12% SDS-PAGE gels and transferred to nitrocellulose membranes. Antibodies for immunoblotting were from Cell Signaling and included Phospho-p38 MAP Kinase (cat #9211), Phospho-p44/42 MAP Kinase (cat #9101), Phospho-PKCzeta/lambda (cat #9378), Phospho-MEK1/2 (cat #9121), Phospho-Raf (cat #9424) and Phospho-SAPK/JNK (cat #9255).
structure (smiles),measurement,setting,value
C/C(=N\NC(=N)N)c1cc(NC(=O)CCCCCCCCC(=O)Nc2cc(/C(C)=N/NC(=N)N)cc(/C(C)=N/NC(=N)N)c2)cc(/C(C)=N/NC(=N)N)c1 [Semapimod],"pMek1/2 expression in biopsies, responders","pMek1/2; Crohn's disease patients who responded (n=5), p=0.0348",significant decrease
same,"pMek1/2 expression in biopsies, nonresponder",pMek1/2; one nonresponder (patient 012),increased pMek1/2 expression; also recorded: not affected
same,expression of pMKK4/7,4/4 macrophages,reduced expression
same,expression of pMek1/2,4/4 macrophages,reduced expression
same,"pPak, upstream of Raf",4/4 macrophages,not affected
same,pRaf protein levels,4/4 macrophages,not affected
same,phosphorylated-Erk1/2,4/4 macrophages,decrease
same,phosphorylated-Jnk,4/4 macrophages,decrease
same,phosphorylated-P38,4/4 macrophages,decrease
same,"CRP, responders","[1]; Crohn's disease patients n=5, all responders",CRP decrease
same,"CRP levels, nonresponder",[1]; patient #12,not affected
same,MEK phosphorylation,PBMCs,abolishes MEK phosphorylation
same,lipopolysaccharide-dependent phosphorylation of the PKC site in c-Raf,PBMCs,does not interfere

# Reference: US20090036540A1, “Guanylhydrazones in Methods of Treatment or Diagnosis as Modulators of Signal Transduction” (Cytokine PharmaSciences, Inc., priority 2003, published 2009)
